Data as given in ChEMBL document CHEMBL1821658, “Synthesis, antimicrobial evaluation and QSAR analysis of novel nalidixic acid based 1,2,4-triazole derivatives” (2011).
Values after ≈ are worked out from the molar mass of the structure shown.

How the values were obtained:
Type in all cases: functional
Klebsiella pneumoniae = assay: Antibacterial activity against Klebsiella pneumoniae ATCC 31488 after 24 hrs by broth micro dilution assay; conditions: ATCC 31488, 24 h
Pseudomonas aeruginosa = assay: Antibacterial activity against Pseudomonas aeruginosa ATCC 9027 after 24 hrs by broth micro dilution assay; conditions: ATCC 9027, 24 h
Fusarium oxysporum = assay: Antifungal activity against Fusarium oxysporum by food poison technique; conditions: read-out: ED50 (the source's name)
Staphylococcus aureus = assay: Antibacterial activity against Staphylococcus aureus ATCC 2937 after 24 hrs by broth micro dilution assay; conditions: ATCC 2937, 24 h
Escherichia coli = assay: Antibacterial activity against Escherichia coli ATCC 8739 after 24 hrs by broth micro dilution assay; conditions: ATCC 8739, 24 h
Bacillus subtilis = assay: Antibacterial activity against Bacillus subtilis ATCC 12711 after 24 hrs by broth micro dilution assay; conditions: ATCC 12711, 24 h
Aspergillus niger = assay: Antifungal activity against Aspergillus niger by food poison technique; conditions: read-out: ED50 (the source's name)

MIC90 (Klebsiella pneumoniae) [µg/mL] | MIC90 (Pseudomonas aeruginosa) [µg/mL] | MIC90 (Staphylococcus aureus) [µg/mL] | MIC90 (Escherichia coli) [µg/mL] | MIC90 (Bacillus subtilis) [µg/mL] | SMILES | EC50 (Fusarium oxysporum) [µg/mL] | EC50 (Aspergillus niger) [µg/mL]
250 (≈ 533 µM) | 62 (≈ 132 µM) | 125 (≈ 266 µM) | 250 (≈ 533 µM) | 250 (≈ 533 µM) | CCn1cc(-c2nnc(S)n2/N=C/c2ccc(Br)cc2)c(=O)c2ccc(C)nc21 | 107 (≈ 227 µM) | 144 (≈ 306 µM)
63 (≈ 208 µM) | 63 (≈ 208 µM) | 63 (≈ 208 µM) | 125 (≈ 413 µM) | 63 (≈ 208 µM) | CCn1cc(-c2nnc(S)n2N)c(=O)c2ccc(C)nc21 | 382 (≈ 1260 µM) | 567 (≈ 1880 µM)
16 (≈ 41 µM) | 16 (≈ 41 µM) | 250 (≈ 640 µM) | 16 (≈ 41 µM) | 250 (≈ 640 µM) | CCn1cc(-c2nnc(S)n2/N=C/c2ccccc2)c(=O)c2ccc(C)nc21 | 78.2 (≈ 200 µM) | 77.7 (≈ 199 µM)
250 (≈ 612 µM) | 16 (≈ 39.2 µM) | 125 (≈ 306 µM) | 250 (≈ 612 µM) | 63 (≈ 154 µM) | CCn1cc(-c2nnc(S)n2/N=C/c2ccc(F)cc2)c(=O)c2ccc(C)nc21 | 163 (≈ 400 µM) | 134 (≈ 327 µM)
250 (≈ 588 µM) | 16 (≈ 37.7 µM) | 125 (≈ 294 µM) | 250 (≈ 588 µM) | 16 (≈ 37.7 µM) | CCn1cc(-c2nnc(S)n2/N=C/c2ccc(Cl)cc2)c(=O)c2ccc(C)nc21 | 79.5 (≈ 187 µM) | 120 (≈ 282 µM)
31 (≈ 66 µM) | 16 (≈ 34.1 µM) | 125 (≈ 266 µM) | 125 (≈ 266 µM) | 16 (≈ 34.1 µM) | CCn1cc(-c2nnc(S)n2/N=C/c2cccc(Br)c2)c(=O)c2ccc(C)nc21 | 74.1 (≈ 158 µM) | 111 (≈ 237 µM)
250 (≈ 574 µM) | 63 (≈ 145 µM) | 125 (≈ 287 µM) | 125 (≈ 287 µM) | 125 (≈ 287 µM) | CCn1cc(-c2nnc(S)n2/N=C/c2cccc([N+](=O)[O-])c2)c(=O)c2ccc(C)nc21 | 138 (≈ 317 µM) | 161 (≈ 369 µM)
63 (≈ 145 µM) | 63 (≈ 145 µM) | 125 (≈ 287 µM) | 125 (≈ 287 µM) | 125 (≈ 287 µM) | CCn1cc(-c2nnc(S)n2/N=C/c2ccc([N+](=O)[O-])cc2)c(=O)c2ccc(C)nc21 | 100 (≈ 230 µM) | 149 (≈ 342 µM)
63 (≈ 152 µM) | 63 (≈ 152 µM) | 63 (≈ 152 µM) | 125 (≈ 301 µM) | 63 (≈ 152 µM) | CCn1cc(-c2nnc(S)n2/N=C/c2ccc(C#N)cc2)c(=O)c2ccc(C)nc21 | 177 (≈ 426 µM) | 156 (≈ 376 µM)
125 (≈ 273 µM) | 63 (≈ 137 µM) | 250 (≈ 545 µM) | 250 (≈ 545 µM) | 63 (≈ 137 µM) | CCn1cc(-c2nnc(S)n2/N=C/c2ccc(C(F)(F)F)cc2)c(=O)c2ccc(C)nc21 | 101 (≈ 220 µM) | 299 (≈ 652 µM)
125 (≈ 308 µM) | 63 (≈ 155 µM) | 125 (≈ 308 µM) | 125 (≈ 308 µM) | 125 (≈ 308 µM) | CCn1cc(-c2nnc(S)n2/N=C/c2ccc(O)cc2)c(=O)c2ccc(C)nc21 | 203 (≈ 500 µM) | 549 (≈ 1350 µM)
31 (≈ 73.7 µM) | 16 (≈ 38.1 µM) | 125 (≈ 297 µM) | 250 (≈ 595 µM) | 16 (≈ 38.1 µM) | CCn1cc(-c2nnc(S)n2/N=C/c2ccc(OC)cc2)c(=O)c2ccc(C)nc21 | 152 (≈ 362 µM) | 105 (≈ 249 µM)
63 (≈ 145 µM) | 63 (≈ 145 µM) | 125 (≈ 288 µM) | 125 (≈ 288 µM) | 63 (≈ 145 µM) | CCOc1ccc(/C=N/n2c(S)nnc2-c2cn(CC)c3nc(C)ccc3c2=O)cc1 | 89.3 (≈ 206 µM) | 86.6 (≈ 199 µM)
63 (≈ 156 µM) | 63 (≈ 156 µM) | 63 (≈ 156 µM) | 125 (≈ 309 µM) | 125 (≈ 309 µM) | CCn1cc(-c2nnc(S)n2/N=C/c2ccc(C)cc2)c(=O)c2ccc(C)nc21 | 205 (≈ 507 µM) | 76.6 (≈ 189 µM)
63 (≈ 151 µM) | 63 (≈ 151 µM) | 63 (≈ 151 µM) | 250 (≈ 597 µM) | 63 (≈ 151 µM) | CCc1ccc(/C=N/n2c(S)nnc2-c2cn(CC)c3nc(C)ccc3c2=O)cc1 | 191 (≈ 456 µM) | 229 (≈ 547 µM)
125 (≈ 289 µM) | 16 (≈ 37 µM) | 63 (≈ 146 µM) | 250 (≈ 578 µM) | 16 (≈ 37 µM) | CCn1cc(-c2nnc(S)n2/N=C/c2ccc(C(C)C)cc2)c(=O)c2ccc(C)nc21 | 106 (≈ 246 µM) | 113 (≈ 262 µM)
63 (≈ 141 µM) | 63 (≈ 141 µM) | 125 (≈ 280 µM) | 63 (≈ 141 µM) | 31 (≈ 69.4 µM) | CCn1cc(-c2nnc(S)n2/N=C/c2ccc(C(C)(C)C)cc2)c(=O)c2ccc(C)nc21 | 117 (≈ 262 µM) | 134 (≈ 299 µM)
63 (≈ 145 µM) | 16 (≈ 36.9 µM) | 125 (≈ 288 µM) | 63 (≈ 145 µM) | 16 (≈ 36.9 µM) | CCn1cc(-c2nnc(S)n2/N=C/c2ccc(N(C)C)cc2)c(=O)c2ccc(C)nc21 | 104 (≈ 239 µM) | 101 (≈ 233 µM)

MIC90 (Klebsiella pneumoniae) [µg/mL] | MIC90 (Pseudomonas aeruginosa) [µg/mL] | MIC90 (Staphylococcus aureus) [µg/mL] | MIC90 (Escherichia coli) [µg/mL] | MIC90 (Bacillus subtilis) [µg/mL] | SMILES | EC50 (Fusarium oxysporum) [µg/mL] | EC50 (Aspergillus niger) [µg/mL]
63 (≈ 144 µM) | 63 (≈ 144 µM) | 250 (≈ 573 µM) | 250 (≈ 573 µM) | 125 (≈ 286 µM) | CCn1cc(-c2nnc(S)n2/N=C/c2ccc(SC)cc2)c(=O)c2ccc(C)nc21 | 104 (≈ 239 µM) | 251 (≈ 574 µM)
250 (≈ 544 µM) | 63 (≈ 137 µM) | 125 (≈ 272 µM) | 250 (≈ 544 µM) | 125 (≈ 272 µM) | CCn1cc(-c2nnc(S)n2/N=C/c2ccc(Cl)cc2Cl)c(=O)c2ccc(C)nc21 | 103 (≈ 224 µM) | 502 (≈ 1090 µM)
125 (≈ 272 µM) | 63 (≈ 137 µM) | 125 (≈ 272 µM) | 16 (≈ 34.8 µM) | 31 (≈ 67.5 µM) | CCn1cc(-c2nnc(S)n2/N=C/c2c(Cl)cccc2Cl)c(=O)c2ccc(C)nc21 | 112 (≈ 245 µM) | 101 (≈ 221 µM)
125 (≈ 322 µM) | 63 (≈ 162 µM) | 63 (≈ 162 µM) | 63 (≈ 162 µM) | 125 (≈ 322 µM) | CCn1cc(-c2nnc3sc(-c4ccccc4)nn23)c(=O)c2ccc(C)nc21 | 103 (≈ 265 µM) | 79.6 (≈ 205 µM)
16 (≈ 37.8 µM) | 16 (≈ 37.8 µM) | 16 (≈ 37.8 µM) | 16 (≈ 37.8 µM) | 16 (≈ 37.8 µM) | CCn1cc(-c2nnc3sc(-c4ccccc4Cl)nn23)c(=O)c2ccc(C)nc21 | 86.6 (≈ 205 µM) | 75.5 (≈ 178 µM)
63 (≈ 149 µM) | 63 (≈ 149 µM) | 63 (≈ 149 µM) | 63 (≈ 149 µM) | 31 (≈ 73.3 µM) | CCn1cc(-c2nnc3sc(-c4cccc(Cl)c4)nn23)c(=O)c2ccc(C)nc21 | 103 (≈ 243 µM) | 144 (≈ 342 µM)
125 (≈ 296 µM) | 125 (≈ 296 µM) | 63 (≈ 149 µM) | 63 (≈ 149 µM) | 63 (≈ 149 µM) | CCn1cc(-c2nnc3sc(-c4ccc(Cl)cc4)nn23)c(=O)c2ccc(C)nc21 | 121 (≈ 287 µM) | 514 (≈ 1210 µM)
125 (≈ 288 µM) | 63 (≈ 145 µM) | 125 (≈ 288 µM) | 125 (≈ 288 µM) | 125 (≈ 288 µM) | CCn1cc(-c2nnc3sc(-c4cccc([N+](=O)[O-])c4)nn23)c(=O)c2ccc(C)nc21 | 148 (≈ 342 µM) | 71 (≈ 164 µM)
63 (≈ 138 µM) | 63 (≈ 138 µM) | 125 (≈ 273 µM) | 31 (≈ 67.8 µM) | 63 (≈ 138 µM) | CCn1cc(-c2nnc3sc(-c4cccc(Cl)c4Cl)nn23)c(=O)c2ccc(C)nc21 | 96.9 (≈ 212 µM) | 109 (≈ 239 µM)
63 (≈ 183 µM) | 31 (≈ 90 µM) | 250 (≈ 726 µM) | 63 (≈ 183 µM) | 125 (≈ 363 µM) | CCn1cc(-c2nnc3sc(S)nn23)c(=O)c2ccc(C)nc21 | 267 (≈ 775 µM) | 92.7 (≈ 269 µM)
31 (≈ 90 µM) | 250 (≈ 726 µM) | 63 (≈ 183 µM) | 63 (≈ 183 µM) | 63 (≈ 183 µM) | CCn1cc(-c2nnc(S)n2NC(C)=O)c(=O)c2ccc(C)nc21 | 166 (≈ 481 µM) | 111 (≈ 322 µM)
63 (≈ 155 µM) | 63 (≈ 155 µM) | 63 (≈ 155 µM) | 63 (≈ 155 µM) | 63 (≈ 155 µM) | CCn1cc(-c2nnc(S)n2NC(=O)c2ccccc2)c(=O)c2ccc(C)nc21 | 110 (≈ 270 µM) | 88.5 (≈ 218 µM)
63 (≈ 157 µM) | 125 (≈ 311 µM) | 63 (≈ 157 µM) | 125 (≈ 311 µM) | 125 (≈ 311 µM) | CCn1cc(-c2nnc3n2N=C(c2ccccc2)CS3)c(=O)c2ccc(C)nc21 | 144 (≈ 359 µM) | 148 (≈ 369 µM)
63 (≈ 177 µM) | 125 (≈ 351 µM) | 250 (≈ 702 µM) | 125 (≈ 351 µM) | 125 (≈ 351 µM) | CCn1cc(-c2nnc3sc(=O)c(=O)[nH]n23)c(=O)c2ccc(C)nc21 | 164 (≈ 461 µM) | 348 (≈ 975 µM)
63 (≈ 219 µM) | 125 (≈ 435 µM) | 63 (≈ 219 µM) | 63 (≈ 219 µM) | 31 (≈ 108 µM) | CCn1cc(-c2nnc(S)[nH]2)c(=O)c2ccc(C)nc21 | 111 (≈ 387 µM) | 76 (≈ 265 µM)
2.5 (≈ 7.54 µM) | 1.25 (≈ 3.77 µM) | 10 (≈ 30.2 µM) | 12.5 (≈ 37.7 µM) | 12.5 (≈ 37.7 µM) | O=C(O)c1cn(C2CC2)c2cc(N3CCNCC3)c(F)cc2c1=O [CIPROFLOXACIN] | – | –
2 (≈ 3.44 µM) | 4 (≈ 6.88 µM) | 15 (≈ 25.8 µM) | 13 (≈ 22.4 µM) | 5 (≈ 8.6 µM) | CN[C@@H]1[C@H](O[C@H]2[C@H](O[C@H]3[C@H](O)[C@@H](O)[C@H](N=C(N)N)[C@@H](O)[C@@H]3N=C(N)N)O[C@@H](C)[C@]2(O)C=O)O[C@@H](CO)[C@H](O)[C@H]1O [STREPTOMYCIN] | – | –
